Source: US20240239790A1, “7-Morpholino-1,6-Naphthyridin-5-yl Derivatives and Pharmaceutical Compositions Thereof Useful as DNA-PK Inhibitor” (adMare Therapeutics Society, priority 2021, published 2024)
Where two headings read alike, the source gives them in different places.

Assays:
[1] = molecular target: T1, DNA-PK phosphorylation at Serine 2056 (Homo sapiens, UniProt P78527); test: Cellular Assay for Inhibition of DNA-PK Phosphorylation at Serine 2056 in FaDu cells (sandwich ELISA, neocarzinostatin); assay type: cell-based; conditions: pSer2056 DNA-PK, Table 3
T1 construct: FaDu cells were purchased from ATCC; host or cells: FaDu
How it was run: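 pSer2056 and total DNA-PK were measured by sandwich ELISA in BCA-normalised FaDu lysates. Cells had 1 h compound exposure (0.3% DMSO), then 2 h with 1 μg/mL final neocarzinostatin. IC50 was fitted (variable slope) to % inhibition scaled against NCS-stimulated and DMSO-only controls.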

[2] = system: pH2AX induction in HCT116 ATM-/- multicellular tumour spheroids; test: Prodrug Radiation Sensitization in Multicellular Tumour Spheroids, inhibition of pH2AX induction following radiation; assay type: cell-based; conditions: Homo sapiens, HCT-116, 20 Gy
How it was run: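 Endpoint: pH2AX (ser 139) or pDNA-PK (ser 2056) in cryosections fixed 1 or 2 h after 20 Gy, comparing oxygenated outer with hypoxic inner layers. Spheroids of ~0.5 mm (HCT116, FaDu; ATM-deficient cells used) held at 20% or 5% O2, 37 °C, stirred. Prodrug range 3.5 nM–10 μM.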

FaDu cell line = test: Prodrug Activation in Hypoxic Stirred Tumour Cell Suspensions; conditions: 10 μM, 4 hours
Description: Prodrug compounds were assayed to determine their stability and rate of activation in stirred cell suspensions under 0.2 vs 5% oxygen. Compounds were diluted 1:1000 from DMSO stocks to 10 μM final concentration in tumour cell suspensions (1% by cell volume) in MEM media containing 10% FBS, 10 mM glucose & 3.7 g/L sodium bicarbonate. Cell lines assayed included A253, A549, Detroit562, FaDu, HCT116, HEP G2, HT29, SCC25, SCC9, SiHa & TC32. Compounds and cells were then incubated for 4 hours under constant mixing at 37° C. under 5% CO2 and either 0.2 or 5% O2. Following the incubation period cellular activation of the compounds was assayed via MeOH extraction and HPLC quantification.

[3] = 5% O2, inner layers, read-out: Prodrug 5% O2 Inner layers EC50
[4] = 5% O2, outer layers, read-out: Prodrug 5% O2 Outer layers EC50
[5] = 20% O2, outer layers, read-out: Prodrug 20% O2 Outer layers EC50

Row | IC50 [1] [µM] | Fraction of prodrug converted to active form, Hypoxic 0.2% O2 (FaDu cell line) | Fraction of prodrug converted to active form, Oxic 5% O2 (FaDu cell line) | SMILES | EC50 [2, 3] [µM] | EC50 [2, 4] [µM] | EC50 [2, 5] [µM]
1 | 10 to 30 | A (A is 0.15 to 1) | D (D is 0 to 0.02) | CC(c1cnc([N+](=O)[O-])n1C)N(c1cnc2cc(N3CCOCC3)nc(O[C@H]3CC[C@@H](Nc4ncc(OCCN5CCN(C)CC5)cn4)CC3)c2c1)S(C)(=O)=O (stereo partly drawn) [LFA2060, N-[1-(3-methyl-2-nitro-imidazol-4-yl)ethyl]-N-[5-[4-[[5-[2-(4-methylpiperazin-1-yl)ethoxy]pyrimidin-2-yl]amino]cyclohexoxy]-7-morpholino-1,6-naphthyridin-3-yl]methanesulfonamide] | 0.5 to 1 | 1 to 10 | 10 to 100
2 | 10 to 30 | B (B is 0.05 to 0.15) | D (D is 0 to 0.02) | CC(c1cnc([N+](=O)[O-])n1C)N(c1cnc2cc(N3CCOCC3)nc(O[C@H]3CC[C@@H](Nc4ncc(CN5CCOCC5)cn4)CC3)c2c1)S(C)(=O)=O (stereo partly drawn) [LFA2053, N-[1-(3-methyl-2-nitro-imidazol-4-yl)ethyl]-N-[7-morpholino-5-[4-[[5-(morpholinomethyl)pyrimidin-2-yl]amino]cyclohexoxy]-1,6-naphthyridin-3-yl]methanesulfonamide] | 0.01 to 0.5 | 0.5 to 1 | 1 to 10
3 | 10 to 30 | B (B is 0.05 to 0.15) | B (B is 0.05 to 0.15) | Cc1cc(C#N)nc(N[C@H]2CC[C@@H](Oc3nc(N4CCOCC4)cc4ncc(OC(C)c5cnc([N+](=O)[O-])n5C)cc34)CC2)n1 (stereo partly drawn) [LFA2094, 6-methyl-2-[[4-[[3-[1-(3-methyl-2-nitro-imidazol-4-yl)ethoxy]-7-morpholino-1,6-naphthyridin-5-yl]oxy]cyclohexyl]amino]pyrimidine-4-carbonitrile] | 0.5 to 1 | 1 to 10 | 10 to 100
4 | 1 to 10 | B (B is 0.05 to 0.15) | B (B is 0.05 to 0.15) | Cn1ncc(CN(c2cnc3cc(N4CCOCC4)nc(O[C@H]4CC[C@@H](Nc5ncc(OCCN6CCOCC6)cn5)CC4)c3c2)S(C)(=O)=O)c1[N+](=O)[O-] [LFA2076, N-[(1-methyl-5-nitro-pyrazol-4-yl)methyl]-N-[7-morpholino-5-[4-[[5-(2-morpholinoethoxy)pyrimidin-2-yl]amino]cyclohexoxy]-1,6-naphthyridin-3-yl]methanesulfonamide] | 0.01 to 0.5 | 0.01 to 0.5 | 0.01 to 0.5
5 | 1 to 10 | B (B is 0.05 to 0.15) | C (C is 0.02 to 0.05) | CC(c1cnn(C)c1[N+](=O)[O-])N(c1cnc2cc(N3CCOCC3)nc(O[C@H]3CC[C@@H](Nc4ncc(OCCN(C)C)cn4)CC3)c2c1)S(C)(=O)=O (stereo partly drawn) [LFA2073, N-[5-[4-[[5-[2-(dimethylamino)ethoxy]pyrimidin-2-yl]amino]cyclohexoxy]-7-morpholino-1,6-naphthyridin-3-yl]-N-[1-(1-methyl-5-nitro-pyrazol-4-yl)ethyl]methanesulfonamide] | 0.01 to 0.5 | 1 to 10 | 1 to 10
6 | 10 to 30 | A (A is 0.15 to 1) | C (C is 0.02 to 0.05) | Cn1c(COc2cnc3cc(N4CCOCC4)nc(O[C@H]4CC[C@@H](c5cnccn5)CC4)c3c2)cnc1[N+](=O)[O-] [LFA2042, 4-[3-[(3-methyl-2-nitro-imidazol-4-yl)methoxy]-5-(4-pyrazin-2-ylcyclohexoxy)-1,6-naphthyridin-7-yl]morpholine] | 0.01 to 0.5 | 1 to 10 | 1 to 10
7 | 10 to 30 | D (D is 0 to 0.02) | D (D is 0 to 0.02) | CN(C)Cc1cnc(N[C@H]2CC[C@@H](Oc3nc(N4CCOCC4)cc4ncc(OCc5cnc([N+](=O)[O-])n5C)cc34)CC2)nc1 [LFA2086, 5-[(dimethylamino)methyl]-N-[4-[[3-[(3-methyl-2-nitro-imidazol-4-yl)methoxy]-7-morpholino-1,6-naphthyridin-5-yl]oxy]cyclohexyl]pyrimidin-2-amine] | 1 to 10 | 1 to 10 | 1 to 10
8 | 10 to 30 | A (A is 0.15 to 1) | C (C is 0.02 to 0.05) | CC(Oc1cnc2cc(N3CCOCC3)nc(O[C@H]3CC[C@@H](Nc4ccccn4)CC3)c2c1)c1cnc([N+](=O)[O-])n1C (stereo partly drawn) [LFA2084, N-[4-[[3-[1-(3-methyl-2-nitro-imidazol-4-yl)ethoxy]-7-morpholino-1,6-naphthyridin-5-yl]oxy]cyclohexyl]pyridin-2-amine] | 0.01 to 0.5 | 1 to 10 | 10 to 100
9 | 1 to 10 | B (B is 0.05 to 0.15) | D (D is 0 to 0.02) | CN1CCN(CCOc2cnc(N[C@H]3CC[C@@H](Oc4nc(N5CCOCC5)cc5ncc(N(Cc6cnc([N+](=O)[O-])n6C)S(C)(=O)=O)cc45)CC3)nc2)CC1 [LFA2059, N-[(3-methyl-2-nitro-imidazol-4-yl)methyl]-N-[5-[4-[[5-[2-(4-methylpiperazin-1-yl)ethoxy]pyrimidin-2-yl]amino]cyclohexoxy]-7-morpholino-1,6-naphthyridin-3-yl]methanesulfonamide] | 1 to 10 | 1 to 10 | 1 to 10
10 | 1 to 10 | B (B is 0.05 to 0.15) | D (D is 0 to 0.02) | CC(c1cnc([N+](=O)[O-])n1C)N(c1cnc2cc(N3CCOCC3)nc(O[C@H]3CC[C@@H](Nc4cncc(C(F)(F)F)n4)CC3)c2c1)S(C)(=O)=O (stereo partly drawn) [LFA2099, N-[1-(3-methyl-2-nitro-imidazol-4-yl)ethyl]-N-[7-morpholino-5-[4-[[6-(trifluoromethyl)pyrazin-2-yl]amino]cyclohexoxy]-1,6-naphthyridin-3-yl]methanesulfonamide] | 10 to 100 | 10 to 100 | 10 to 100
11 | 1 to 10 | B (B is 0.05 to 0.15) | D (D is 0 to 0.02) | CC(Oc1cnc2cc(N3CCOCC3)nc(O[C@H]3CC[C@@H](Nc4ncc(CN(C)C)cn4)CC3)c2c1)c1cnc([N+](=O)[O-])n1C (stereo partly drawn) [LFA2085, 5-[(dimethylamino)methyl]-N-[4-[[3-[1-(3-methyl-2-nitro-imidazol-4-yl)ethoxy]-7-morpholino-1,6-naphthyridin-5-yl]oxy]cyclohexyl]pyrimidin-2-amine] | 1 to 10 | 1 to 10 | 1 to 10
12 | 1 to 10 | B (B is 0.05 to 0.15) | C (C is 0.02 to 0.05) | CC(c1cnc([N+](=O)[O-])n1C)N(c1cnc2cc(N3CCOCC3)nc(O[C@H]3CC[C@@H](Nc4ncc(CCN5CCOCC5)cn4)CC3)c2c1)S(C)(=O)=O (stereo partly drawn) [LFA2074, N-[1-(3-methyl-2-nitro-imidazol-4-yl)ethyl]-N-[7-morpholino-5-[4-[[5-(2-morpholinoethyl)pyrimidin-2-yl]amino]cyclohexoxy]-1,6-naphthyridin-3-yl]methanesulfonamide] | 0.01 to 0.5 | 0.5 to 1 | 1 to 10
